Measured values from patent US20240067631A1, “PYRAZOLE DERIVATIVES USEFUL AS NAMPT MODULATORS” (Cytokinetics, Inc., priority 2020, published 2024).

Biological target: human NAMPT (Homo sapiens (Human), UniProt P43490)
Experiment: Human recombinant enzyme assay (NMN fluorescence biochemical assay)
Conditions: 6 nM human NAMPT, 60 min; for AC1.4 Human: concentration of compound that generates 40% higher activity over basal; for EC50: concentration that gives half-maximal activation
Description: Compounds described herein were assayed for their ability to stimulate the synthesis of nicotinamide mononucleotide (NMN) by the enzyme NAMPT. The human recombinant enzyme assay measures the activation of the enzyme activity by compounds using recombinant enzyme and substrates in a buffered cell-free system. The assay conditions closely mimic cellular environments. Dose responses were measured using an assay to detect the formation of nicotinamide mono-nucleotide. All experiments were performed in the 384-well format. Generally, 0.5 μL of DMSO containing varying concentrations of the test compound was mixed with 10 μL of the enzyme reagent solution. Enzyme reactions were initiated with the addition of 10 μL of a solution containing the substrates. The final assay conditions were as follows: 6 nM human NAMPT, 2.5 mM ATP, […] in 50 mM HEPES, pH 7.2, 1 mM DTT, 1 mM CHAPS 50 mM NaCl, 100 mM MgCl2. Following an incubation of 60 min at ambient temperature, 10 μL of 20% acetophenone in DMSO was added, followed by 10 μL of 2 M KOH and 40 μL of formic acid. The plates were read for fluorescence (Excitation/Emission=355 nm/460 nm) using an EnVision plate reader after 40 mins of incubation at ambient temperature. The potency measurements for compounds, are quantified and represented as AC1.4 (the concentration of compounds that generates 40% higher activity over basal) and EC50 (concentration of the compound that gives half-maximal activation).

Sequence of human NAMPT (P43490 whole entry): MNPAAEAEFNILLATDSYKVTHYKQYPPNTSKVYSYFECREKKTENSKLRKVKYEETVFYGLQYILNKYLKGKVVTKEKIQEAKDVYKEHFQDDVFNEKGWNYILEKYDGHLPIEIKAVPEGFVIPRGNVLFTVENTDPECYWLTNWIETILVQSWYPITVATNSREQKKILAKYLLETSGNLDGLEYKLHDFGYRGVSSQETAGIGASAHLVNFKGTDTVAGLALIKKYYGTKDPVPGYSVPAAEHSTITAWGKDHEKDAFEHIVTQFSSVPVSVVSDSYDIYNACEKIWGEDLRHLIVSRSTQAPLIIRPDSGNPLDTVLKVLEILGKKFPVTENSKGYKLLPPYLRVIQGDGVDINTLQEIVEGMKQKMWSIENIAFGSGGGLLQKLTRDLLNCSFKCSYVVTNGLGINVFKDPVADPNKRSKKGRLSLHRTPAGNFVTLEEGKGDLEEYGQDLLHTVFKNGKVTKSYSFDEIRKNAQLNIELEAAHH

Structure (SMILES)	AC1.4 Human	EC50
Cc1nc(C(=O)N[C@@H](C)c2ccccn2)nc(NCCc2cn[nH]c2)c1C [Compound 137, (S)-4-((2-(1H-pyrazol-4-yl)ethyl)amino)-5,6-dimethyl-N-(1-(pyridin-2-yl)ethyl)pyrimidine-2-carboxamide]	3.794 µM	34.5 µM
Cc1nc(C(=O)N[C@H](C)c2ccsc2)nc(NCCc2cn[nH]c2)c1C [Compound 35]	0.231 µM	0.617 µM
Cc1nc(C(=O)NC(C)c2cncs2)nc(NCCc2cn[nH]c2)c1C (centres unmarked) [Compound 103, 4-((2-(1H-pyrazol-4-yl)ethyl)amino)-5,6-dimethyl-N-(1-(thiazol-5-yl)ethyl)pyrimidine-2-carboxamide]	1.6375 µM	21.5 µM
Cc1nc(C(=O)NC2(c3ccccc3)COC2)nc(NCCc2cn[nH]c2)c1C [Compound 114, 4-((2-(1H-pyrazol-4-yl)ethyl)amino)-5,6-dimethyl-N-(3-phenyloxetan-3-yl)pyrimidine-2-carboxamide]	2.1125 µM	23.1 µM
Cc1nc(C(=O)NCC2(c3ccccc3)COC2)nc(NCCc2cn[nH]c2)c1C [Compound 94, 4-((2-(1H-pyrazol-4-yl)ethyl)amino)-5,6-dimethyl-N-((3-phenyloxetan-3-yl)methyl)pyrimidine-2-carboxamide]	1.271 µM	8.13 µM
Cc1nc(C(=O)N[C@H](C)c2cccnc2)nc(NCCc2cn[nH]c2)c1C [Compound 127, (R)-4-((2-(1H-pyrazol-4-yl)ethyl)amino)-5,6-dimethyl-N-(1-(pyridin-3-yl)ethyl)pyrimidine-2-carboxamide]	32.9385 µM	60 µM
Cc1nc(C(=O)NC(c2ccc(F)c(F)c2)c2nccn2C)nc(NCCc2cn[nH]c2)c1C (centres unmarked) [Compound 134, 4-((2-(1H-pyrazol-4-yl)ethyl)amino)-N-((3,4-difluorophenyl)(1-methyl-1H-imidazol-2-yl)methyl)-5,6-dimethylpyrimidine-2-carboxamide]	3.578 µM	26.2 µM
Cc1nc(C(=O)N[C@H]2C[C@@H](c3ccccc3)C2)nc(NCCc2cn[nH]c2)c1C [Compound 135, 4-((2-(1H-pyrazol-4-yl)ethyl)amino)-5,6-dimethyl-N-((1s,3s)-3-phenylcyclobutyl)pyrimidine-2-carboxamide]	3.7335 µM	17.5 µM
Cc1nc(C(=O)N2CCOCC2c2ccc(F)cc2)nc(NCCc2cn[nH]c2)c1C (centres unmarked) [Compound 67, (4-((2-(1H-pyrazol-4-yl)ethyl)amino)-5,6-dimethylpyrimidin-2-yl)(3-(4-fluorophenyl)morpholino)methanone]	0.505 µM	3.86 µM
CNC(=O)c1nc(C)c(C)c(N(CCc2ccccc2)CCc2cn[nH]c2)n1 [Compound 2, 4-((2-(1H-pyrazol-4-yl)ethyl)(phenethyl)amino)-N,5,6-trimethylpyrimidine-2-carboxamide]	0.007 µM	0.155 µM
CCC1(O)CN(C(=O)c2nc(C)c(C)c(NCCc3cn[nH]c3)n2)C1 [Compound 107, (4-((2-(1H-pyrazol-4-yl)ethyl)amino)-5,6-dimethylpyrimidin-2-yl)(3-ethyl-3-hydroxyazetidin-1-yl)methanone]	2.339 µM	14 µM
Cc1nc(C(=O)NCC(F)(F)c2ccccc2)nc(NCCc2cn[nH]c2)c1C [Compound 111, 4-((2-(1H-pyrazol-4-yl)ethyl)amino)-N-(2,2-difluoro-2-phenylethyl)-5,6-dimethylpyrimidine-2-carboxamide]	1.9995 µM	18.5 µM
Cc1nc(C(=O)NC2CC(F)(F)c3ccccc32)nc(NCCc2cn[nH]c2)c1C (centres unmarked) [Compound 79, 4-((2-(1H-pyrazol-4-yl)ethyl)amino)-N-(3,3-difluoro-2,3-dihydro-1H-inden-1-yl)-5,6-dimethylpyrimidine-2-carboxmaide]	0.8395 µM	4.62 µM
